Results as given in patent US20100203033A1, “Kits, formulations and solutions having enzymatically- permissive amounts of visualization agents and uses thereof” (priority 2007, published 2010).
Blank lines part the entries; values can stand above or below the compound they belong to.

Legend:
[1] = target: T1, thrombin (Homo sapiens, UniProt P00734); assay: Drop test model after freeze and thaw (F&T) of dyed thrombin; type: biochemical; parameters: 5 ml of a thrombin solution 5 folds diluted (final: 200 IU/ml)
Method: (§1) Human thrombin was mixed with different dyes to final dye concentrations of 0.005-0.2%. The influence of dyes on clotting kinetics was tested using the drop test model. Briefly, measurements of fibrin clotting kinetics were performed on an inclined plane in a device powered by a Nitrogen pressure of 7×10^5 Pa. In each experiment 5 ml of Biological Active Component (BAC) and 5 ml of a thrombin solution 5 folds diluted (final: 200 IU/ml) (in 40 mM CaCl2) were pumped into a separate syringe. […] These two solutions were released (about ⅛ of each) simultaneously, and a mixed drop falls onto a slanted surface. The drop leaks down the slope until a clot is formed. The distance traveled by the drops was recorded on a millimetric paper sheet placed on the slanted surface. […] The migration lengths of the fibrin sealant with the different formulations are listed below in Table 2.
Human thrombin was formulated with methylene blue, crystal violet, bromothymol blue or riboflavin at final concentrations of 0.005-0.1%. The different formulations were fast frozen to −35° C. and then thawed. The effect of the freeze and thaw procedure on thrombin clotting activity was evaluated using the drop test model (migration time assay as in Example 2).

[2] = target: T1, thrombin; assay: Drop test model: migration length of fibrin sealant on a slanted surface (clotting kinetics); type: biochemical; parameters: 5 ml of a thrombin solution 5 folds diluted (final: 200 IU/ml)
Method: as §1

[3] = target: T1, thrombin; assay: Thrombin clotting activity of dyed thrombin formulations (modified European Pharmacopeia Assay 0903/1997); type: biochemical; parameters: measuring thrombin clotting activity in the different formulations
Method: The present study was aimed to determine the effect of dye addition to the fibrin glue formulation on thrombin activity. […] The compatibility of the dyes with thrombin was tested by measuring thrombin clotting activity in the different formulations according to the following modified, European Pharmacopeia Assay (0903/1997), procedure.
(§2) Briefly, standard solution of thrombin (4, 6, 8 and 10 IU/ml) or the test sample were incubated for 2 minutes at 30° C. Then 40 μl thrombin solution of each solution were mixed with 160 μl fibrinogen solution (0.1%; Enzyme research; cat No FIB1 2800L) and clotting time was measured. A calibration curve of log clotting times vs. log thrombin concentration was plotted using the standards. Thrombin activity in the different formulations was determined by the clotting time obtained (calculated automatically by a clotting machine, interpolated from the calibration curve and multiplied by the dilution factor).

[4] = target: T1, thrombin; assay: Thrombin clotting activity of dyed thrombin with or without exposure to day light; type: biochemical; parameters: measuring thrombin clotting activity in the different formulations; conditions: 0.02% dye in thrombin solution, uncovered, 6 hours day light
Method: as §2
In the adhesion prevention indications the dye may be added to the thrombin component prior to mixing it with BAC. The present experiment was carried out to assess the effect of visualization agent addition to thrombin solution on thrombin clotting activity. Two dyes were evaluated: Indigo Carmine (IC) and Methylene Blue (MB). […] The effect of the dyes on thrombin activity with or without exposure to day light was assessed. The thrombin clotting activity was measured as indicated above in Example 1. […] The samples were mixed with the same fibrinogen solution and the thrombin activity was calculated from the calibration curve. […]
Thrombin activity and the color intensity (OD of IC at 610 nm and of MB at 663 nm) were measured at TO and after exposure to day light for 6 hours. […]

[5] = Solubility of indigo carmine in thrombin solution by visual inspection; type: physicochemical
Method: The present example was aimed to determine the maximal solubility of indigo carmine in the thrombin component of the fibrin sealant. Thrombin final container (Omrix, 1,000 IU/ml, 5 ml) was mixed with 1% indigo carmine (dissolved in purified water) to a final concentration of 0.2, 0.21, 0.22, 0.25 or 0.3 mg/ml. The prepared solutions were mixed on a roller for 30 min at room temperature and the solubility limit of the dye was determined by visual inspection.

[6] = dye concentration within the thrombin component 0.01%
[7] = dye concentration within the thrombin component 0.02%
[8] = dye 0.005% in thrombin component
[9] = dye concentration within the thrombin component 0.005%
[10] = dye concentration within the thrombin component 0.05%
[11] = dye concentration within the thrombin component 0.1%
[12] = dye concentration within the thrombin component 0.2%

Structure (SMILES): CN(C)c1ccc(C(=C2C=CC(=[N+](C)C)C=C2)c2ccc(N(C)C)cc2)cc1 [Crystal Violet]
Migration length [1, 8]: 16.3 cm
Migration length [2, 9]: 12.1 cm
Migration length [2, 6]: 23.9 cm
Migration length [2, 10]: >25 cm
Recovered activity [3, 6]: 106%
Thrombin Activity [3, 6]: 1125 IU/ml
Recovered activity [3, 10]: 94%
Thrombin Activity [3, 10]: 995 IU/ml
Recovered activity [3, 11]: 49%
Thrombin Activity [3, 11]: 516 IU/ml
Recovered activity [3, 12]: 22%
Thrombin Activity [3, 12]: 234 IU/ml

Structure (SMILES): CN(C)c1ccc(N=Nc2ccc(S(=O)(=O)[O-])cc2)cc1.[Na+] [Methyl Orange, Methyl Orange Sodium Salt]
Migration length [2, 9]: 8.26 cm
Migration length [2, 6]: 7.6 cm

Structure (SMILES): CN(C)c1ccc(/N=N/c2ccccc2C(=O)O)cc1 [Methyl Red, Methyl red]
Migration length ([2]; dye dilution 01:26): 12.4 cm
Migration length ([2]; dye dilution 01:51): 10.2 cm

Structure (SMILES): CN(C)c1ccc2nc3ccc(=[N+](C)C)cc-3sc2c1 [Methylene Blue]
reduction in thrombin activity [4]: about 50%
Migration length ([1]; dye 0.1% in thrombin component): 8.4 cm
Migration length [2, 11]: 10.7 cm
Migration length [2, 12]: 14.3 cm
Recovered activity [3, 6]: 92%
Thrombin Activity [3, 6]: 1018 IU/ml
Recovered activity [3, 10]: 97%
Thrombin Activity [3, 10]: 1070 IU/ml
Recovered activity [3, 11]: 90%
Thrombin Activity [3, 11]: 991 IU/ml
Recovered activity [3, 12]: 89%
Thrombin Activity [3, 12]: 978 IU/ml

Structure (SMILES): Cc1cc2nc3c(=O)[nH]c(=O)nc-3n(C[C@H](O)[C@H](O)[C@H](O)CO)c2cc1C [Riboflavin]
Migration length [1, 8]: 19.8 cm
Migration length [2, 9]: 11.5 cm
Migration length [2, 6]: 13.3 cm
Migration length [2, 7]: 22.9 cm

Results, then the compound that gave them:

Migration length ([1]; dye 0.02% in thrombin component): >25 cm
Migration length [2, 6]: 9.7 cm
Migration length [2, 7]: 11.9 cm
Structure (SMILES): Cc1c(C2(c3cc(C(C)C)c(O)c(Br)c3C)OS(=O)(=O)c3ccccc32)cc(C(C)C)c(O)c1Br [Bromothymol Blue]

effect of storage at 2-8 °C ([5]; 0.02% indigo carmine dyed thrombin solution, about 30 min at 2-8 °C): sedimentation
effect of incubation at room temperature after refrigeration ([5]; 0.02% indigo carmine dyed thrombin solution, after over night incubation at 2-8 °C): re-dissolution of the particulate sample
result of visual inspection above the solubility limit ([5]; 0.21, 0.22, 0.25 and 0.3 mg/ml in thrombin solution): aggregate formation
concentration at which complete dissolution of the sample was obtained ([5]; thrombin final container 1,000 IU/ml, 30 min on roller at room temperature): 200 µg/mL
Structure (SMILES): O=C1/C(=C2\Nc3ccc(S(=O)(=O)O)cc3C2=O)Nc2ccc(S(=O)(=O)O)cc21 [indigo carmine, Indigotindisulfonate sodium]
